Test results published in ChEMBL document CHEMBL3132769, “Fragment growing to retain or alter the selectivity of anchored kinase hinge-binding fragments” (Medchemcomm, 2014).

Assays:
[1] = target: Glycogen synthase kinase-3 beta (Homo sapiens) (UniProt P49841); experiment: Inhibition of human full length GSK-3 beta expressed in baculovirus assessed as substrate phosphorylation using fluorescence-labelled peptides as substrate at 0.06 uM after 90 mins by microfluidic peptide phosphorylation assay
Chain of Glycogen synthase kinase-3 beta (Homo sapiens) (P49841 whole entry, looked up): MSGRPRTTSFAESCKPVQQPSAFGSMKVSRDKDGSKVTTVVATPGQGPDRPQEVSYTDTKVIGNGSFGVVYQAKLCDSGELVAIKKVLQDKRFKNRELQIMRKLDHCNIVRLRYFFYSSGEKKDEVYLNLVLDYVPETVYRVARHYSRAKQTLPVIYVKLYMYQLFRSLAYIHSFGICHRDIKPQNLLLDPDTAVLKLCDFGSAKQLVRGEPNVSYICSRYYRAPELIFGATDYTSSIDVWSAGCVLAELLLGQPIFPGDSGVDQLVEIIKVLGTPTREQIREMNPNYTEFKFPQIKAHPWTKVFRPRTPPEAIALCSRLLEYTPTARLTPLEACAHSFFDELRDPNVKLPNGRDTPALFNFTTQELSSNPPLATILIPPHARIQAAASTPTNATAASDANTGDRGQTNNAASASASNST

[2] = target: T1, Serine/threonine-protein kinase D3 (Homo sapiens) (UniProt O94806); experiment: Inhibition of human full length PKD3 expressed in baculovirus assessed as substrate phosphorylation using fluorescence-labelled peptides as substrate at 0.2 uM after 90 mins by microfluidic peptide phosphorylation assay
T1 sequence (whole entry): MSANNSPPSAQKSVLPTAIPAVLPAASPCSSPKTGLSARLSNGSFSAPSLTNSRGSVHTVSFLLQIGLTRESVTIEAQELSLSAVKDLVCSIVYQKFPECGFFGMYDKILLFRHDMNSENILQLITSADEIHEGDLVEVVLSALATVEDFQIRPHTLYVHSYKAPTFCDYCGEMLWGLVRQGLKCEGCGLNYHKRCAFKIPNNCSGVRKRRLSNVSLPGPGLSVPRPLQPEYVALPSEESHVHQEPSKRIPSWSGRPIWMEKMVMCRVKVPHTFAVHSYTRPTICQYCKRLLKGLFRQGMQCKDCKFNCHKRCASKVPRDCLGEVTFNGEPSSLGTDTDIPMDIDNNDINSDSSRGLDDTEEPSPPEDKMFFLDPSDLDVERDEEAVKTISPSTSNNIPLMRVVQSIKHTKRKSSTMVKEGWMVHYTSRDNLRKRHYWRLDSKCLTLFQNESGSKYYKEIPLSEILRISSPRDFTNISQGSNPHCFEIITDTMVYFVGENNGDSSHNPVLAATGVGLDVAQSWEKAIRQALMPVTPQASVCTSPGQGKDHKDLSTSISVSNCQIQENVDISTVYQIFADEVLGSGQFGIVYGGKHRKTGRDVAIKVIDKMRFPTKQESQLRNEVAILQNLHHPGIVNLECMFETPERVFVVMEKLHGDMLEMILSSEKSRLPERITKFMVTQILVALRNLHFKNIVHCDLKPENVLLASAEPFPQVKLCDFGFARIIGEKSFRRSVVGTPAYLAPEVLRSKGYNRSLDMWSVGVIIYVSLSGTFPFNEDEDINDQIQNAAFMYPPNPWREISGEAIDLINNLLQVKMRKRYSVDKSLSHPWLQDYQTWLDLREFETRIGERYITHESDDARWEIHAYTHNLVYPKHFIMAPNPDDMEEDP

[3] = target: T2, Aurora kinase C (Homo sapiens) (UniProt Q9UQB9); experiment: Inhibition of human full length AurC expressed in baculovirus assessed as substrate phosphorylation using fluorescence-labelled peptides as substrate at 2 uM after 90 mins by microfluidic peptide phosphorylation assay
T2 sequence (whole entry): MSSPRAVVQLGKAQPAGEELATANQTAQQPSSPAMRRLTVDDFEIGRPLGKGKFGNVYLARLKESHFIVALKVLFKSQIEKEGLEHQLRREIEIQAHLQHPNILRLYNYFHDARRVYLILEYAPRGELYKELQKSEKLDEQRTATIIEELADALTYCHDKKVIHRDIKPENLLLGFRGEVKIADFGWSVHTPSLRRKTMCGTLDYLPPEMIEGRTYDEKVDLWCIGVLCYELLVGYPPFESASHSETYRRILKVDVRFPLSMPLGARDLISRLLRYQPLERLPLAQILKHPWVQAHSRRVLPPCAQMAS

[4] = target: Ribosomal protein S6 kinase alpha-4 (Homo sapiens) (UniProt O75676); experiment: Inhibition of human full length MSK2 expressed in baculovirus assessed as substrate phosphorylation using fluorescence-labelled peptides as substrate at 0.1 uM after 90 mins by microfluidic peptide phosphorylation assay
Chain of Ribosomal protein S6 kinase alpha-4 (Homo sapiens) (O75676 whole entry, looked up, the tested form may be a part): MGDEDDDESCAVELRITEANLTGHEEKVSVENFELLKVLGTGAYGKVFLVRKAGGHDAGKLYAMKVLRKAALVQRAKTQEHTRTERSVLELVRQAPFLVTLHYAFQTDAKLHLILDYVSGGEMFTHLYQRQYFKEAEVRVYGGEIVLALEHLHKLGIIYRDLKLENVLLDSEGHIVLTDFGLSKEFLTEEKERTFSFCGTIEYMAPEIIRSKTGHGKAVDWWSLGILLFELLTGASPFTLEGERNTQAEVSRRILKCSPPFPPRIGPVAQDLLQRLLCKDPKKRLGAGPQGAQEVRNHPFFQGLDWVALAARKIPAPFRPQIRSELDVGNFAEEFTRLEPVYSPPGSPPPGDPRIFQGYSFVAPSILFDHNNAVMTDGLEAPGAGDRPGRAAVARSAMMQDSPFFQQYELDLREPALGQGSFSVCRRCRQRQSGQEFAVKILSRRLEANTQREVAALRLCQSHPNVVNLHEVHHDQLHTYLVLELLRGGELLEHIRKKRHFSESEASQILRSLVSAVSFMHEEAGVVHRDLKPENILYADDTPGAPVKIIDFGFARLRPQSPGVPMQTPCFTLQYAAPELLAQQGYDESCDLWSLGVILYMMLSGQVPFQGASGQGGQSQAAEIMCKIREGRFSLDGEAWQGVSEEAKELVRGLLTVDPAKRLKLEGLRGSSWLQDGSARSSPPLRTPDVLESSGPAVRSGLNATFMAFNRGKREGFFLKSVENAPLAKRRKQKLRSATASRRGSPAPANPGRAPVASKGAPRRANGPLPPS

[5] = target: Protein kinase C beta type (Homo sapiens) (UniProt P05771); experiment: Inhibition of human truncated PKC beta1 expressed in baculovirus assessed as substrate phosphorylation using fluorescence-labelled peptides as substrate at 95 uM after 90 mins by microfluidic peptide phosphorylation assay
[6] = target: Receptor-type tyrosine-protein kinase FLT3 (Homo sapiens) (UniProt P36888); experiment: Inhibition of human FLT3 catalytic domain expressed in baculovirus assessed as substrate phosphorylation using fluorescence-labelled peptides as substrate at 1000 uM after 90 mins by microfluidic peptide phosphorylation assay
Chain of Receptor-type tyrosine-protein kinase FLT3 (Homo sapiens) (P36888 whole entry, the tested form may be a part): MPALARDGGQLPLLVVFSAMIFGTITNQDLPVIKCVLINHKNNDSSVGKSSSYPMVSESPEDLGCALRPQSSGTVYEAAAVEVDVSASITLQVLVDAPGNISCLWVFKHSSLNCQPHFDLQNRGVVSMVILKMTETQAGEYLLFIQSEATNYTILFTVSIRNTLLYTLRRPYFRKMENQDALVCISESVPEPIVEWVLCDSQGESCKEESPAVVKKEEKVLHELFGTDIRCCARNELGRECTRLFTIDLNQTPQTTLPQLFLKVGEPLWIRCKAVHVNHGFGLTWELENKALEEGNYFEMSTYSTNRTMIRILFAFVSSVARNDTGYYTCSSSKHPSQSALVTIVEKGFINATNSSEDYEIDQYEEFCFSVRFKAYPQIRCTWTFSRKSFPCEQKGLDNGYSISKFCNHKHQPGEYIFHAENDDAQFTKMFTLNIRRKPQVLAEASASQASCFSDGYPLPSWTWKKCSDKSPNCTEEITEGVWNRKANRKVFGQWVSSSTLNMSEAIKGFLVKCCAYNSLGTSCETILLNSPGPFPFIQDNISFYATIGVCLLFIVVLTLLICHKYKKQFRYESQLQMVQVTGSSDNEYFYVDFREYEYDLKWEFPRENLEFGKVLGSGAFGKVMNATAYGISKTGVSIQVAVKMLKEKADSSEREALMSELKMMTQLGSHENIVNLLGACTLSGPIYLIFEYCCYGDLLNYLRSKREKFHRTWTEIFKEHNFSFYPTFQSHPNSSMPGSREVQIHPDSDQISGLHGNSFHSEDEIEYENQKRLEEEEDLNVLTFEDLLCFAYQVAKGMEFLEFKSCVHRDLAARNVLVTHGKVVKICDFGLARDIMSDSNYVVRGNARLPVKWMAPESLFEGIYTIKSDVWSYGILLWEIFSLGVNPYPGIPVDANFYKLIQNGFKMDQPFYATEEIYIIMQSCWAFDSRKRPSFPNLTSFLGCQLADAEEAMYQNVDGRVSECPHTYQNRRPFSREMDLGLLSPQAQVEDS

[7] = target: T3, Serine/threonine-protein kinase DCLK2 (Homo sapiens) (UniProt Q8N568); experiment: Inhibition of human full length DCAMKL2 expressed in baculovirus assessed as substrate phosphorylation using fluorescence-labelled peptides as substrate at 1000 uM after 90 mins by microfluidic peptide phosphorylation assay
T3 sequence (whole entry): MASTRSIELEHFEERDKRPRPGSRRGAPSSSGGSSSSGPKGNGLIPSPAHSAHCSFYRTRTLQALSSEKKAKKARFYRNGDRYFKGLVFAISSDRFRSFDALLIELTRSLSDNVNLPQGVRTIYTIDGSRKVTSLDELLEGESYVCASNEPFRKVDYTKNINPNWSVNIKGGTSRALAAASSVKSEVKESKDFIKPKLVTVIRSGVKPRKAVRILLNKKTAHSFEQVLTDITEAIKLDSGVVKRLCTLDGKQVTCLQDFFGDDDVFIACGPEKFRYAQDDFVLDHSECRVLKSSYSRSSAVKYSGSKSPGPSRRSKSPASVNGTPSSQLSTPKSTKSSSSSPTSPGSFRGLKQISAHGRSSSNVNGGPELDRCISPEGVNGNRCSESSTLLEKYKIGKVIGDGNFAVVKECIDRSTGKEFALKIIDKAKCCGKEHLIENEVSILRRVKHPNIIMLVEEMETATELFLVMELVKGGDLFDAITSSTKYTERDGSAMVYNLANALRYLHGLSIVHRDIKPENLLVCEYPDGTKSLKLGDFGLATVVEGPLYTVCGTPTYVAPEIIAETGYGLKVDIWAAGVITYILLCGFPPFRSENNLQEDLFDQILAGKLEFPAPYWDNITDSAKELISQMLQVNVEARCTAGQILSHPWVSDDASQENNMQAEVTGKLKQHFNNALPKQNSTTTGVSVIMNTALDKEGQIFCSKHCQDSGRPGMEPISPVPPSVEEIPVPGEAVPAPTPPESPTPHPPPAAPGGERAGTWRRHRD

[8] = target: Fibroblast growth factor receptor 3 (Homo sapiens) (UniProt P22607); experiment: Inhibition of human FGFR3 catalytic domain expressed in baculovirus assessed as substrate phosphorylation using fluorescence-labelled peptides as substrate at 1000 uM after 90 mins by microfluidic peptide phosphorylation assay
Chain of Fibroblast growth factor receptor 3 (Homo sapiens) (P22607 23-806 limits assumed): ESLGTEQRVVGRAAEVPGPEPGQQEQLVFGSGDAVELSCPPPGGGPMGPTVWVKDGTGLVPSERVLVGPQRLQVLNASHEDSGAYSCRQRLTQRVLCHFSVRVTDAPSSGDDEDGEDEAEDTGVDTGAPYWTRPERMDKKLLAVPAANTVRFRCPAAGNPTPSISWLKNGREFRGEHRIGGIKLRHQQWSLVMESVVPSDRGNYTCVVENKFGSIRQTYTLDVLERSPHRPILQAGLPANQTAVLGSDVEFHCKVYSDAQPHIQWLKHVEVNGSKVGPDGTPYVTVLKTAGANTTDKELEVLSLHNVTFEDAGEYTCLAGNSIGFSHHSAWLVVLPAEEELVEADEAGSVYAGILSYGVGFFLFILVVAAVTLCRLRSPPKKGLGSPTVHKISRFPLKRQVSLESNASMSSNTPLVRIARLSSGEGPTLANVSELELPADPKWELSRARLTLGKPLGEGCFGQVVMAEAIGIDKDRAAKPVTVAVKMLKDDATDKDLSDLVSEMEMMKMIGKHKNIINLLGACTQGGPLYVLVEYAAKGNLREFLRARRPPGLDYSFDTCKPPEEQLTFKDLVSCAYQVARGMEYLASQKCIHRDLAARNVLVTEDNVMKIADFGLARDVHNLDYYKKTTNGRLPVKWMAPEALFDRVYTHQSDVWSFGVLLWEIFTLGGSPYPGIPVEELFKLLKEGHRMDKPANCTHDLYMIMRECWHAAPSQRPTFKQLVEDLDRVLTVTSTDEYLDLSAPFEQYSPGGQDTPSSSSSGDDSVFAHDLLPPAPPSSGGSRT

[9] = target: T1, Serine/threonine-protein kinase D3 (Homo sapiens); experiment: Inhibition of human full length PKD3 expressed in baculovirus assessed as substrate phosphorylation using fluorescence-labelled peptides as substrate at 70 uM after 90 mins by microfluidic peptide phosphorylation assay
[10] = target: Protein kinase C alpha type (Homo sapiens) (UniProt P17252); experiment: Inhibition of human truncated PKC alpha expressed in baculovirus assessed as substrate phosphorylation using fluorescence-labelled peptides as substrate at 70 uM after 90 mins by microfluidic peptide phosphorylation assay
[11] = test system: Fibroblast growth factor receptor 2 (Homo sapiens), P21802 [N549H]; experiment: Inhibition of human FGFR2 N549H mutant catalytic domain expressed in baculovirus assessed as substrate phosphorylation using fluorescence-labelled peptides as substrate at 420 uM after 90 mins by microfluidic peptide phosphorylation assay
Chain of Fibroblast growth factor receptor 2 (Homo sapiens), P21802 [N549H] (P21802 whole entry N549H, the tested form may be a part): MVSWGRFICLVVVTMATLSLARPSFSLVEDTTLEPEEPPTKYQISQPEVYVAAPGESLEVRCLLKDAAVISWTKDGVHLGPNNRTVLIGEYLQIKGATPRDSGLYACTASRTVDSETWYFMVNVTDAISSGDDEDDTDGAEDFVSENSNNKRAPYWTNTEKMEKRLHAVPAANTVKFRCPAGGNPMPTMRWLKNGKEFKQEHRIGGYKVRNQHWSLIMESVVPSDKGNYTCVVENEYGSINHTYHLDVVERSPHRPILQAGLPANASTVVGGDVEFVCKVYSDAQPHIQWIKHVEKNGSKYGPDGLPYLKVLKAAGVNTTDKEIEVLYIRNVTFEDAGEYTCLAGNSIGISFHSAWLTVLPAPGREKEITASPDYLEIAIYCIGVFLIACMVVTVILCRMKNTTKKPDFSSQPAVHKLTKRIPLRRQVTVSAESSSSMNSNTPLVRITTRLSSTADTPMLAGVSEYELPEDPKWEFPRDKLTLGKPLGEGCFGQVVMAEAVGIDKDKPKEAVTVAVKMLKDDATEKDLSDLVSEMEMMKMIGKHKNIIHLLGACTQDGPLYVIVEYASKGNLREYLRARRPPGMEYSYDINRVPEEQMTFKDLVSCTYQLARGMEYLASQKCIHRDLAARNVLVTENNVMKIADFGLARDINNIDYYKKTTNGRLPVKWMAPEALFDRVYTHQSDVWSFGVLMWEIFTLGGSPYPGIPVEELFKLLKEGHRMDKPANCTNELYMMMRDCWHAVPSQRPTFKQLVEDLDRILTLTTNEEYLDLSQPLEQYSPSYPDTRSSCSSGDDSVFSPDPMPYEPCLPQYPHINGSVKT

**Q.** For NC1(Cc2ccc(Cl)cc2)CCN(c2ncnc3[nH]ccc23)CC1, which inhibition [1] is on record?
**A.** 0%

**Q.** Which inhibition [2] does the source give for Clc1ccc(C2(c3ccc(-c4ncnc5[nH]cnc45)cc3)CCNCC2)cc1 here?
**A.** 12.5%

**Q.** Which inhibition [3] does the source give for NC1CCN(c2ncnc3[nH]ccc23)CC1 here?
**A.** 13.5%

**Q.** With C[C@H](CN(C)C)Oc1nc(Nc2cc3cccc(Cl)c3cn2)cnc1C#N as the molecule, how does the inhibition [4] read?
**A.** 13.5%

**Q.** NCCc1ccc(-c2ncnc3[nH]cnc23)cc1 was tested. Which inhibition [5] did it give?
**A.** 77%

**Q.** For c1cnc2[nH]ccc2c1, which inhibition [6] is on record?
**A.** 75.5%

**Q.** And the inhibition [7]?
**A.** 15%

**Q.** And the inhibition [8]?
**A.** 63.5%

**Q.** How did the inhibition [9] turn out when CNCc1ccc(-c2ncnc3[nH]cnc23)cc1 was run?
**A.** 72.5%

**Q.** What about the inhibition [10] of the same molecule?
**A.** 56%

**Q.** Which inhibition [11] does the source give for c1nc(N2CCOCC2)c2nc[nH]c2n1 here?
**A.** 89.5%
